{"source": "patent US20220000117A1", "about": "“METHOD FOR CONTROLLING DISEASES IN SMALL GRAIN CEREALS, SEED OF SMALL GRAIN CEREALS, AND METHOD FOR SUPPRESSING LODGING DAMAGE IN SMALL GRAIN CEREALS” (KUMIAI CHEMICAL INDUSTRY CO., LTD., priority 2019, published 2022)", "key": {"[1]": {"tested_on": "wheat (variety: Norin No. 61)", "assay": "Test Example 3: emergence rate of wheat seed", "assay_type": "in vivo", "method": "(§1) Seed having a mass of 1 kg of wheat (variety: Norin No. 61) was mixed into 100 ml of suspension water containing 5 g or 0.5 g of dichlobentiazox or isotianil and air-dried, and then, 12 seeds were sown in a plastic cup having a diameter of 6 cm containing river sand and managed in a greenhouse. The number of emerged seeds was investigated nine days after seeding, and an emergence rate was calculated (Examples 6 to 9). In Comparative Examples 6 to 9, 20 ml of suspension water of an active ingredient, which had been adjusted to have a concentration shown in Table 4, was sprayed in a frame of 45 cm×45 cm in which a pot of wheat seedlings was placed (corresponding to 1000 L/ha) 14 days after seeding. On day 14 after seeding, conidiospores of powdery mildew were sifted over leaves of wheat seedlings and inoculated onto the leaves (after the sprayed liquid was dried in the case of Comparative Examples), a lesion area ratio of powdery mildew in a first leaf was investigated 19 days after seeding according to the criteria in Table 1, and the degree of disease occurrence was calculated by the above calculation formula (1)."}, "powdery mildew [2]": {"tested_on": "powdery mildew", "assay": "Test Example 1: control test of wheat powdery mildew, field, wheat variety Haruyutaka", "assay_type": "in vivo, Blumeria graminis", "conditions": "for Degree of Disease Occurrence / Disease Leaf Rate (%): flag leaves, 79 days after seeding", "method": "Seed of wheat (variety: Haruyutaka) sterilized in advance with commercial Benlate T wettable powder 20 (“Benlate” is a registered trademark) was used. In Example 1, seed having a mass of 1 kg was mixed into 100 ml of suspension water containing 5 g of dichlobentiazox, air-dried, and then, stripe-sown in a field with a furrow width of 30 cm and a ratio of 163 kg/ha (417 seeds/m^2). In contrast, in Comparative Example 1, seed which had not treated with dichlobentiazox was sown in a field in the same manner, and a spray solution corresponding to that obtained by suspending 500 g of dichlobentiazox in 200 liters of water per 1 ha was sprayed on foliage of wheat three times, during an ear emergence period (63 days after seeding), a flowering period (70 days after seeding), and a flowering end period (77 days after seeding). Similarly, in place of 500 g of dichlobentiazox in Comparative Example 1, 250 g of azoxystrobin (commercial Amistar 20 flowable was used. “Amistar” is a registered trademark) was used in Comparative Example 2, and 125 g of propiconazole (commercial Tilt emulsifiable concentrate 25 was used, “Tilt” is a registered trademark) was used in Comparative Example 3. The presence or absence of disease occurrence and a lesion area ratio of powdery mildew in flag leaves of 30 stems were investigated 79 days after seeding according to the criteria in Table 1, and a disease leaf rate and the degree of disease occurrence were calculated by the following calculation formula (1).\n(§2) Degree of Disease Occurrence=Σ(Index×Number of Leaves of Index)/(4×Number of Investigated Leaves)×100 (1)"}, "powdery mildew [3]": {"tested_on": "powdery mildew", "assay": "Test Example 3: control test of wheat powdery mildew, cup in greenhouse, inoculated", "assay_type": "in vivo, Blumeria graminis", "design": "key to Degree of Disease Occurrence: Σ(index×no. leaves of index)/(4×no. investigated leaves)×100", "conditions": "for Degree of Disease Occurrence: 19 days after seeding", "method": "as §2, §1"}, "[4]": {"conditions": "Foliage Treatment, spray 500 g/ha three times"}, "[5]": {"conditions": "Seed Treatment 5 g/Seed 1 kg (815 g/ha)"}}, "data": [{"smiles": "O=S1(=O)N=C(OCc2snc(Cl)c2Cl)c2ccccc21", "note": "[Compound (1), Dichlobentiazox]", "values": [{"measurement": "Emergence Rate (%)", "setting": "[1]; Foliage Treatment group, spray 50 ppm (50 g/ha) 14 days after seeding, emergence counted nine days after seeding", "result": 100, "unit": "%"}, {"measurement": "Emergence Rate (%)", "setting": "[1]; Foliage Treatment group, spray 500 ppm (500 g/ha) 14 days after seeding, emergence counted nine days after seeding", "result": 97, "unit": "%"}, {"measurement": "Emergence Rate (%)", "setting": "[1]; Seed Treatment 0.5 g/Seed 1 kg (50 g/ha), nine days after seeding", "result": 97, "unit": "%"}, {"measurement": "Emergence Rate (%)", "setting": "[1]; Seed Treatment 5 g/Seed 1 kg (500 g/ha), nine days after seeding", "result": 100, "unit": "%"}, {"measurement": "disease occurrence of powdery mildew, seed treatment compared with foliage spraying of dichlobentiazox (Comparative Example 1)", "setting": "powdery mildew [2]; Example 1, seed treatment", "result": "more suppressed"}, {"measurement": "Degree of Disease Occurrence", "setting": "powdery mildew [2]; [4]", "result": 12.6}, {"measurement": "Disease Leaf Rate (%)", "setting": "powdery mildew [2]; [4]", "result": 58.9, "unit": "%"}, {"measurement": "Degree of Disease Occurrence", "setting": "powdery mildew [2]; [5]", "result": 0.6}, {"measurement": "Disease Leaf Rate (%)", "setting": "powdery mildew [2]; [5]", "result": 4.4, "unit": "%"}, {"measurement": "disease occurrence of powdery mildew, seed treatment compared with foliage spraying of azoxystrobin and propiconazole (Comparative Examples 2 and 3)", "setting": "powdery mildew [2]; seed treatment", "result": "more suppressed"}, {"measurement": "Degree of Disease Occurrence", "setting": "powdery mildew [3]; Foliage Treatment, spray 50 ppm suspension water (50 g/ha) day 14, first leaf", "result": 52.8}, {"measurement": "Degree of Disease Occurrence", "setting": "powdery mildew [3]; Foliage Treatment, spray 500 ppm suspension water (500 g/ha) day 14, first leaf", "result": 44.4}, {"measurement": "Degree of Disease Occurrence", "setting": "powdery mildew [3]; Seed Treatment 0.5 g/Seed 1 kg (50 g/ha), inoculated day 14, first leaf", "result": 10.1}, {"measurement": "Degree of Disease Occurrence", "setting": "powdery mildew [3]; Seed Treatment 5 g/Seed 1 kg (500 g/ha), inoculated day 14, first leaf", "result": 9.0}, {"measurement": "disease occurrence of powdery mildew, seed treatment compared with spraying on foliage during a growing period", "setting": "powdery mildew [3]; seed treatment", "result": "suppressed lower"}]}]}
